The values below come from publication PMC7036849, “Development of Coumarin-Based Hydroxamates as Histone Deacetylase Inhibitors with Antitumor Activities” (Molecules, 2020).

Assay [1] concerns MDA-MB-231 cells. Briefly: Apoptosis analysis (annexin V, flow cytometry). The following applies: 48 h. (Flow cytometry measures light scatter and fluorescence of single cells or particles in a stream.)
Experimental: Briefly, cell apoptosis analysis was measured by annexin V FITC/PI assay using Annexin v-PE/7-AAD Apoptosis Detection kit (BD). […] After 48 h, the drug-treated cells were washed three times with PBS; the cell suspension was collected and centrifuged; and the supernatant was removed.
Assay [2] has as its system H157. The assay can be described thus: SRB antiproliferative assay, H157. It counts as cell-based. The following applies: Homo sapiens, NCI-H157, 48 h, read-out: IC50 H157. The method, then: Cancer cells (6 × 10^3 per well) were inoculated into 96-well plates. The treatment was carried out for 48 h, followed by SRB staining, and the absorption value was measured at 540 nm by a microplate reader. SAHA was used as a positive control, and the independent experiment was performed three times.
For orientation: Sulforhodamine B stains cellular protein and so reports cell mass.

Assay [3] concerns MDA-MB-231 cells. Briefly: Cell cycle arrest analysis (PI, flow cytometry). The following applies: for cell cycle arrest: MDA-MB-231.
Experimental: After 24 h of cell cycle treatment, the cells were washed three times with PBS, and the cell suspension was collected, centrifuged again, and then added to an ethanol fixative (70%) and placed in a refrigerator for overnight storage. After washing, the dye was added and stained with PI containing RNaseA solution for 30 min at 37 °C, and then analyzed by FACS.
Assay [4] concerns human lung epithelial cells (Beas-2B). Briefly: Antiproliferative activity against normal cells, Beas-2B. The assay is classed as cell-based. Conditions: read-out: Antiproliferative IC50 Beas-2B. An excerpt: (§1) Two normal cell lines were selected: human lung epithelial cells (Beas-2B) and human liver epithelial cells (L-02).
Assay [5] has as its system acetyl-histone H3. Briefly: Western blot analysis, acetyl-histone H3. Conditions: MDA-MB-231, 1, 2 and 5 µM, 48 h. It counts as cell-based, human. As to the method: (§2) Based on the aforementioned results, western blot analysis was further performed by immunoblotting assay (β-actin as the negative control).
(§3) Briefly, MDA-MB-231 cells were lysed in lysis buffer (50 mM Tris-HCl pH 8.0, 5 mM EDTA, 100 mM NaCl, 0.5% NP-40, 1 mM PMSF) and then centrifuged for 10 min at 12,000 r, and the insoluble debris was discarded. Cell lysates were further analyzed with SDS-PAGE and western blotting with indicated antibodies. After treatment with 13a and 13c for indicated times, cells were harvested with RIPA buffer (150 mM sodium chloride, 1% Triton X-100, 0.5% sodium deoxycholate, 0.1% SDS, 50 mM Tris and cocktails of protease and phosphatase inhibitors) for 10 min at room temperature and boiled for another 10 min. Equal amounts of total proteins (35 μg) underwent 15% SDS-PAGE and were electroblotted onto the polyvinylidene difluoride (PVDF) membrane. The membrane was blocked with 5% (w/v) fat-free dry milk in PBS-Tween 20 (PBST; 0.05%) for 1 h and incubated with primary antibody (1:1000 in PBST) at 4 °C overnight. […] The relative quantity of proteins was analyzed via the Image J software (NIH, Bethesda, MD, USA).
(§4) (B) Quantitative analysis. The relative levels of Ac-H3 and Ac-H4 used to control β-actin were determined by densimetric scanning.

The subject of assay [6] is human liver epithelial cells (L-02). Briefly: Antiproliferative activity against normal cells, L-02. It counts as cell-based. The following applies: Epithelial cell, read-out: Antiproliferative IC50 L-02.
Text: as §1

The subject of assay [7] is MDA-MB-231 cells. Briefly: Colony formation assay. Conditions: MDA-MB-231, seven days, compared with SAHA.
Experimental: One week after the addition of the drugs, the medium was removed. The cells were then washed three times with PBS and fixed in methanol for 5 min. The cells were lastly stained with 1% crystal violet (Beyotime) for 15 min and washed with PBS. Images were collected using a scanning apparatus (Canon, Tokyo, Japan).
For assay [8], the system named is acetyl-histone H4. The assay can be described thus: Western blot analysis, acetyl-histone H4. It counts as cell-based, human. The following applies: MDA-MB-231, 1, 2 and 5 µM, 48 h. As to the method: as §2, §3, §4
For orientation: In western blotting, separated proteins are transferred to a membrane and probed.

For assay [9], the system named is A549. Briefly: SRB antiproliferative assay, A549. It counts as cell-based. Conditions: Homo sapiens, A549, 48 h, read-out: IC50 A549. The method, then:
(§5) Cancer cells (6 × 10^3 per well) were inoculated into 96-well plates. The treatment was carried out for 48 h, followed by SRB staining, and the absorption value was measured at 540 nm by a microplate reader.

For assay [10], the system named is MCF-7. The assay can be described thus: SRB antiproliferative assay, MCF-7. The assay is classed as cell-based. Conditions: Homo sapiens, MCF7, 48 h, read-out: IC50 MCF-7. The method, then: as §5
Assay [11] concerns MDA-MB-231. Briefly: SRB antiproliferative assay, MDA-MB-231. The assay is classed as cell-based. Conditions: Homo sapiens, MDA-MB-231, 48 h, read-out: IC50 MDA-MB-231. The method, then:
as §5

The subject of assay [12] is solid tumor cell lines. The assay can be described thus: Antiproliferative activity, summary over tumor cell lines. The assay is classed as cell-based. The following applies: Homo sapiens, read-out: IC50 values against solid tumor cell lines (range). The method, then: as §5
The target of assay [13] is HDAC1 (Homo sapiens, UniProt Q13547). The assay can be described thus: HDAC1 inhibitory assay (Boc-Lys(Ac)-AMC substrate). The assay is classed as biochemical. The following applies: n ≥ 3, SD <20% of the mean; read-out: IC50 against HDAC1. As to the method:
The enzyme inhibitory assay was conducted by Shanghai ChemPartner Corporation (Shanghai, China). […] Then the lysine developer was added to terminate the reaction, and the samples were further incubated at 37 °C for 30 min. […] Three independent experiments with triplicate were carried out.

Usually IC50 stands for the concentration that gives 50% inhibition.

HDAC1, sequence (Q13547 whole entry): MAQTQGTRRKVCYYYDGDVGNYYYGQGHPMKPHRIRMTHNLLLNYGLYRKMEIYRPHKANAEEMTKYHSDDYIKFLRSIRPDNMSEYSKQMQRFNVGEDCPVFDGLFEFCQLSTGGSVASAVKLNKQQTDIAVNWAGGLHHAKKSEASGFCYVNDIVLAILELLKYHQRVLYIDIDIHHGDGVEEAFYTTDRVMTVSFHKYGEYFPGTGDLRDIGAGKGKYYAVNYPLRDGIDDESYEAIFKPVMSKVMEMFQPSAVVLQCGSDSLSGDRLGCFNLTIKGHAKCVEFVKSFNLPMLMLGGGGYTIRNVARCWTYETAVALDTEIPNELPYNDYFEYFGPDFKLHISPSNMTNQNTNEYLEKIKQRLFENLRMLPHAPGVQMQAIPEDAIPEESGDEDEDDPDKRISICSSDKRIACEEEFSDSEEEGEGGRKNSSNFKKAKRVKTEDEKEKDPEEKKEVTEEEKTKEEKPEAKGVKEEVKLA

For the compound `O=C(CCCCCCC(=O)Nc1ccccc1)NO` [Compound 1, vorinostat, reference compound], the cell apoptosis was 7.3% in assay [1] (MDA-MB-231, 1 µM) and 12.6% in assay [1] (MDA-MB-231, 2 µM). Further, the IC50 in assay [2] was found to be 1660 ± 140 nM. Also, the “cells in G2/M phase” value in [3] (MDA-MB-231, 1 μM, 24 h) worked out at 11.02%.
Turning to `CCCOc1ccc2c(OCCCCCCCC(=O)NO)cc(=O)oc2c1` [Compound 13a, N-Hydroxy-8-((2-oxo-7-propoxy-2H-benzopyran-4-yl)oxy)octanoic acid], the IC50 in [4] was above 50 µM; in assay [6] it was above 50 µM; in assay [2], 1040 ± 80 nM. The “acetylation level of histone H3” value in assay [5] was “increased the acetylation levels of histone H3 and H4 in a clearly dose-dependent manner”. Besides, the cell apoptosis is 13.24% in assay [1] (MDA-MB-231, 1 µM) and 18.01% in assay [1] (MDA-MB-231, 2 µM). Also, the “inhibition of colony formation” value in assay [7] is reported as “significant inhibition of the colony formation more potently than SAHA”. Also, the “acetylation level of histone H4” value in assay [8] was “increased the acetylation levels of histone H3 and H4 in a clearly dose-dependent manner”. Also, the cell cycle arrest result in assay [3] is “arrested MDA-MB-231 cells in a dose-dependent manner”.
Regarding `CCCCOc1ccc2c(OCCCCCCCC(=O)NO)cc(=O)oc2c1` [Compound 13b, N-Hydroxy-8-((7-butoxy-2-oxo-2H-benzopyran-4-yl)oxy)octanoic acid], the IC50 in assay [9] is 4.09 ± 1.54 µM; in assay [4], above 50 µM; in assay [6], above 20 µM; in [10], 2.93 ± 0.49 µM; in [2] it was 1200 ± 170 nM; in [11], 1970 ± 560 nM.
With `COCCOc1ccc2c(OCCCCCCCC(=O)NO)cc(=O)oc2c1` [Compound 13c, N-Hydroxy-8-((7-(2-methoxyethoxy)-2-oxo-2H-chromen-4-yl)oxy)octanoic acid], the 50% inhibitory concentration (IC50) in [4] is above 100 µM; in [6], above 100 µM; in assay [12], 360 to 2910 nM; in [2], 590 ± 30 nM. Also, the “acetylation level of histone H3” value in [5] was “increased the acetylation levels of histone H3 and H4 in a clearly dose-dependent manner”. The cell apoptosis in assay [1] (MDA-MB-231, 1 µM) worked out at 19.26%; in assay [1] (MDA-MB-231, 2 µM), 25.14%. The “inhibition of colony formation” value in [7] is reported as “significant inhibition of the colony formation more potently than SAHA”. For the same compound, the “acetylation level of histone H4” value in assay [8] is “increased the acetylation levels of histone H3 and H4 in a clearly dose-dependent manner”. Also, the cell cycle arrest result in [3] was “arrested MDA-MB-231 cells in a dose-dependent manner”.
In the case of `COCCCOc1ccc2c(OCCCCCCCC(=O)NO)cc(=O)oc2c1` [Compound 13d, N-Hydroxy-8-((7-(3-methoxypropoxy)-2-oxo-2H-chromen-4-yl)oxy)octanoic acid], the IC50 in assay [9] is 4.11 ± 0.65 µM; in [4], above 20 µM; in [6], above 20 µM; in assay [10], 5.23 ± 1.63 µM; in [2], 2360 ± 500 nM; in assay [11], 1700 ± 390 nM.
As to `O=C(CCCCCCCOc1cc(=O)oc2cc(OCC3CCCCC3)ccc12)NO` [Compound 13g], the 50% inhibitory concentration (IC50) in [13] was found to be 5.01 nM.
Take `O=C(CCCCCCCOc1cc(=O)oc2cc(OCc3ccccc3[N+](=O)[O-])ccc12)NO` [Compound 14b, N-Hydroxy-8-((7-((2-nitrobenzyl)oxy)-2-oxo-2H-chromen-4-yl)oxy)octanoic acid]: the IC50 in assay [13] is 1.59 nM.
In the case of `O=C(CCCCCCCOc1cc(=O)oc2cc(OCc3cccc([N+](=O)[O-])c3)ccc12)NO` [Compound 14c, N-Hydroxy-8-((7-((3-nitrobenzyl)oxy)-2-oxo-2H-chromen-4-yl)oxy)octanoic acid], the IC50 in assay [13] amounted to 1.97 nM.
The same measure, in the same setting: for `O=C(CCCCCCCOc1cc(=O)oc2cc(OCc3ccc([N+](=O)[O-])cc3)ccc12)NO` [Compound 14d, N-Hydroxy-8-((7-((4-nitrobenzyl)oxy)2-oxo-2H-chromen-4-yl)oxy)octanoic acid] the value was 1.72 nM; for `O=C(CCCCCCCOc1cc(=O)oc2cc(OCc3ccccc3Cl)ccc12)NO` [Compound 14h, N-Hydroxy-8-((7-((2-chlorobenzyl)oxy)-2-oxo-2H-chromen-4-yl)oxy)octanoic acid], 2.4 nM.
On the same count and under the same terms, for `O=C(CCCCCCCOc1cc(=O)oc2cc(OCc3cccc(Cl)c3)ccc12)NO` [Compound 14i, N-Hydroxy-8-((7-((3-chlorobenzyl)oxy)-2-oxo-2H-chromen-4-yl)oxy)octanoic acid] the value was 4.25 nM; for `O=C(CCCCCCCOc1cc(=O)oc2cc(OCc3ccc(Cl)cc3)ccc12)NO` [Compound 14j, N-Hydroxy-8-((7-((4-chlorobenzyl)oxy)-2-oxo-2H-chromen-4-yl)oxy)octanoic acid], 2.52 nM.
The same measure, in the same setting: the figure for `O=C(CCCCCCCOc1cc(=O)oc2cc(OCc3ccc(Br)cc3)ccc12)NO` [Compound 14k, N-Hydroxy-8-((7-((4-bromobenzyl)oxy)2-oxo-2H-chromen-4-yl)oxy)octanoic acid] is 3.02 nM; for `O=C(CCCCCCCOc1cc(=O)oc2cc(OCc3ccc(C(F)(F)F)cc3)ccc12)NO` [Compound 14l] it is 5.5 nM.
Regarding `O=C(CCCCCCCOc1cc(=O)oc2cc(OCc3c(F)cccc3F)ccc12)NO` [Compound 14m, N-Hydroxy-8-((7-((2,6-difluorobenzyl)oxy)2-oxo-2H-chromen-4-yl)oxy)octanoic acid], the IC50 in assay [9] came to 7.58 ± 2.05 µM; in assay [10] it was 6.05 ± 1.33 µM; in assay [2] it was 4810 ± 800 nM; in [11], 1950 ± 290 nM.
For `O=C(CCCCCCCOc1cc(=O)oc2cc(OCc3ccc(F)cc3Cl)ccc12)NO` [Compound 14o, N-Hydroxy-8-((7-((2-chloro-4-fluorobenzyl)oxy)2-oxo-2H-chromen-4-yl)oxy)octanoic acid], the IC50 in [13] is 3.22 nM.
With `Cc1ccccc1COc1ccc2c(OCCCCCCCC(=O)NO)cc(=O)oc2c1` [Compound 14p, N-Hydroxy-8-((7-((2-methylbenzyl)oxy)-2-oxo-2H-chromen-4-yl)oxy)octanoic acid], the IC50 in assay [13] came out at 1.56 nM.
For `Cc1cccc(COc2ccc3c(OCCCCCCCC(=O)NO)cc(=O)oc3c2)c1` [Compound 14q, N-Hydroxy-8-((7-((3-methylbenzyl)oxy)-2-oxo-2H-chromen-4-yl)oxy)octanoic acid], the IC50 in [13] is 2.95 nM.
On the same count and under the same terms, for `Cc1ccc(COc2ccc3c(OCCCCCCCC(=O)NO)cc(=O)oc3c2)cc1` [Compound 14r, N-Hydroxy-8-((7-((4-methylbenzyl)oxy)2-oxo-2H-chromen-4-yl)oxy)octanoic acid] the value was 2.5 nM; for `Cc1cccc(C)c1COc1ccc2c(OCCCCCCCC(=O)NO)cc(=O)oc2c1` [Compound 14s, N-Hydroxy-8-((7-((2,6-dimethylbenzyl)oxy)-2-oxo-2H-chromen-4-yl)oxy)octanoic acid], 5.19 nM.
